Reference: patent US20050101595A1, “N-containing cycloalkyl-substituted amino-thiazole derivatives and pharmaceutical compositions for inhibiting cell proliferation and methods for their use” (PFIZER INC., priority 2003, published 2005)
Counter-ions that a name gives are not always drawn. Like-named read-outs stand apart in the source and are kept apart here.

Assays:
[1] = molecular target: human CDK4 and genetically truncated (1-264) cyclin D3 (Homo sapiens, UniProt P11802); test: Inhibition of CDK4/Cyclin D Retinoblastoma Kinase Activity; format: biochemical; conditions: for Ki: apparent Ki, CDK4/truncated cyclin D3, Rb fragment substrate, 25 μM ATP
Sequence of human CDK4 and genetically truncated (1-264) cyclin D3 (P11802 whole entry, the tested form may be a part): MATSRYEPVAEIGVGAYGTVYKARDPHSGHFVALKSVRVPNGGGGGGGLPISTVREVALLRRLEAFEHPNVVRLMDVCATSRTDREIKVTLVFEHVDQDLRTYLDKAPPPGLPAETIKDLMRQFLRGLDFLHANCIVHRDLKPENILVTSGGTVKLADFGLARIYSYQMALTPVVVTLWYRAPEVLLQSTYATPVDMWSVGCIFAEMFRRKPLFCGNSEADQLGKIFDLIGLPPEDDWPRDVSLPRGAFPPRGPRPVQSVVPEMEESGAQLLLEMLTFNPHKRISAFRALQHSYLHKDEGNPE
Sequence of human CDK4 and genetically truncated (1-264) cyclin D3 (P30281 1-264 partner): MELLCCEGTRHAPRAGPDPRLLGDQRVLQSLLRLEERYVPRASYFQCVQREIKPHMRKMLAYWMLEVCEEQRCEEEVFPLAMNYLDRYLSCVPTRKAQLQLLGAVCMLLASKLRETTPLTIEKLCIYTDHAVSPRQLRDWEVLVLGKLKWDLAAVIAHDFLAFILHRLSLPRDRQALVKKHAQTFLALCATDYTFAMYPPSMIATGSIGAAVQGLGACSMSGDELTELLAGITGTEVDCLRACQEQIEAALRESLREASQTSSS
Outline: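 Apparent Ki values come from competitive or competitive tight-binding inhibition fits of background-corrected 32P/33P incorporation into His-tagged Rb fragment (386-928), captured on nitrocellulose. Reaction: 5 nM insect-cell-expressed human CDK4 with cyclin D3 (1-264), 25 μM ATP, pH 7.4 HEPES, 2% DMSO, 30° C., 20 min, extended to 60 min for tight-binding inhibitors.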

[2] = molecular target: CDK2/Cyclin A (Homo sapiens, UniProt P24941); test: Inhibition of CDK2/Cyclin A Retinoblastoma Kinase Activity; format: biochemical; conditions: for CDK2 % Inhibition At 0.03 μM: Table 2; for Ki: apparent Ki, CDK2/proteolyzed cyclin A, Rb fragment substrate, 25 μM ATP
Outline: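 Radiometric filter-binding readout of phosphate transfer to an Rb substrate fragment by purified CDK2/truncated cyclin A at 10 or 19 nM. Run at pH 7.4 with 25 μM ATP, 30 °C, 60–75 min, linear rates; background without enzyme subtracted, Ki from competitive-inhibition models.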

[3] = system: HCT-116 cell line; test: Inhibition of cell growth, tetrazolium salt (MTT) assay; format: cell-based; conditions: for HCT-116 % Inhibition at 0.25 μM: 0.25 μM compound; for IC50: Homo sapiens, HCT-116, 120 h, MTT, three to five days, read-out: HCT-116 IC50
Outline: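 Growth inhibition is scored relative to cells receiving only 0.5% (v/v) DMSO. Plated cells rest 4 h, then take compound for three to five days at 37° C; MTT reduction to formazan is read at 540 nm.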

[4] = 0.1 μM compound, HCT-116, Table 4

## COc1ccc(S(=O)(=O)N2CCC(Nc3nc(N)c(C(=O)c4c(F)cccc4F)s3)CC2)cc1 [Example P20]
[1]; 0.03 μM compound, Table 3
  CDK4 % Inhibition at 0.03 μM: 76%
[2]; 0.03 μM compound, Table 3
  CDK2 % Inhibition at 0.03 μM: 78%
[3]; 0.1 μM compound, HCT-116, Table 3
  HCT-116 % Inhibition at 0.1 μM: 23%
[3]; HCT-116, Table 3
  HCT-116 % Inhibition at 0.25 μM: 43%

## COc1cc(NC(=O)N2CCC(Nc3nc(N)c(C(=O)c4c(F)cccc4F)s3)CC2)cc(OC)c1 [Example O45]
[1]; 0.03 μM compound, Table 2
  CDK4 % Inhibition at 0.03 μM: 17%
[2]; 0.03 μM compound
  CDK2 % Inhibition At 0.03 μM: 35%
[3]; HCT-116, Table 2
  HCT-116 % Inhibition at 0.25 μM: 32%

## Nc1nc(NC2CCN(S(=O)(=O)c3ccc(Br)s3)CC2)sc1C(=O)c1c(F)cccc1F [Example F50, 1-{4-Amino-2-[1-(5-bromo-thiophene-2-sulfonyl)-piperidin4-ylamino]-thiazol-5-yl}1-(2,6-difluoro-phenyl)-methanone]
[1]
  Ki: 3.2 nM
[2]
  Ki: 1.1 nM
[3]; first HCT-116 column (c4)
  IC50: 280 nM
[3]; second HCT-116 column (c5)
  IC50: 2600 nM

## COc1ccc(C(=O)N2CCC(Nc3nc(N)c(C(=O)c4c(F)cccc4F)s3)CC2)cc1OC [Example Q21]
[1]; 0.03 μM compound, Table 4
  CDK4 % Inhibition at 0.03 μM: 14%
[2]; 0.03 μM compound, Table 4
  CDK2 % Inhibition at 0.03 μM: −23%
[3]; [4]
  HCT-116 % Inhibition at 0.1 μM: 16%
[3]; HCT-116, Table 4
  HCT-116 % Inhibition at 0.25 μM: 51%

## COC(=O)[C@@H](NC(=O)N1CCC(Nc2nc(N)c(C(=O)c3c(F)cccc3F)s2)CC1)C(C)C [Example O76]
[1]; 0.03 μM compound, Table 2
  CDK4 % Inhibition at 0.03 μM: 5%
[2]; 0.03 μM compound
  CDK2 % Inhibition At 0.03 μM: 22%
[3]; HCT-116, Table 2
  HCT-116 % Inhibition at 0.25 μM: 49%

## Nc1nc(NC2CCN(C(=O)c3ccno3)CC2)sc1C(=O)c1c(F)cccc1F [Example R46]
[1]; at 0.03 μM
  CDK4 % Inhibition at 0.03 μM: 83%
[2]; at 0.03 μM
  CDK2 % Inhibition at 0.03 μM: 71%
[3]; HCT-116 cells, at 0.1 μM
  HCT-116 % Inhibition at 0.1 μM: 0.47%
[3]; HCT-116 cells
  HCT-116 5 Inhibition at 0.25 μM: 37

## CC1CCC(C(C)C)C(OC(=O)N2CCC(Nc3nc(N)c(C(=O)c4c(F)cccc4F)s3)CC2)C1 (stereo not drawn) [Example R86]
[1]; at 0.03 μM
  CDK4 % Inhibition at 0.03 μM: 9%
[2]; at 0.03 μM
  CDK2 % Inhibition at 0.03 μM: 9%
[3]; HCT-116 cells, at 0.1 μM
  HCT-116 % Inhibition at 0.1 μM: 0%
[3]; HCT-116 cells
  HCT-116 5 Inhibition at 0.25 μM: 34

## CN1CC[C@H](Oc2ccc(S(=O)(=O)N3CCC(Nc4nc(N)c(C(=O)c5c(F)cccc5F)s4)CC3)cn2)C1 [Example H28, (4-Amino-2-{1-[6-(1-methyl-pyrrolidin-3S-yloxy)-pyridine-3-sulfonyl]-piperidin-4-ylamino}-thiazol-5-yl)-(2,6-difluoro-phenyl)-methanone Hydrochloride]
[1]
  Ki: 1 nM
[2]
  Ki: 0.41 nM
[3]; first HCT-116 column (c4)
  IC50: 49 nM
[3]; second HCT-116 column (c5)
  IC50: 160 nM

## Nc1nc(NC2CCN(C(=O)c3ccc(C(F)(F)F)cc3)CC2)sc1C(=O)c1c(F)cccc1F [Example R152]
[1]; at 0.03 μM
  CDK4 % Inhibition at 0.03 μM: 41%
[2]; at 0.03 μM
  CDK2 % Inhibition at 0.03 μM: 17%
[3]; HCT-116 cells, at 0.1 μM
  HCT-116 % Inhibition at 0.1 μM: 0%
[3]; HCT-116 cells
  HCT-116 5 Inhibition at 0.25 μM: 40

## Nc1nc(NC2CCN(S(=O)(=O)CCCN3CCC4CCCCC4C3)CC2)sc1C(=O)c1c(F)cccc1F (mixture of isomers) [Example K10, 1-(4-Amino-2-{1-[3-([cis/trans]-octahydro-1H-isoquinolin-2-yl)propane-1-sulfonyl]-piperidin-4-ylamino}-thiazol-5-yl)-1-(2,6-difluoro-phenyl)-methanone.]
[1]
  Ki: 1.1 nM
[2]
  Ki: 2.6 nM
[3]; first HCT-116 column (c4)
  IC50: 190 nM
[3]; second HCT-116 column (c5)
  IC50: 1300 nM

## Nc1nc(NC2CCN(C(=O)c3cccc4ccccc34)CC2)sc1C(=O)c1c(F)cccc1F [Example Q62]
[1]; 0.03 μM compound, Table 4
  CDK4 % Inhibition at 0.03 μM: 49%
[2]; 0.03 μM compound, Table 4
  CDK2 % Inhibition at 0.03 μM: 33%
[3]; [4]
  HCT-116 % Inhibition at 0.1 μM: 12%
[3]; HCT-116, Table 4
  HCT-116 % Inhibition at 0.25 μM: 53%

## CN(C)CCS(=O)(=O)N1CCC(Nc2nc(N)c(C(=O)c3c(F)cccc3F)s2)CC1 [Example F26, {4-Amino-2-[1-(2-dimethylamino-ethanesulfonyl)-piperidin-4-ylamino]-thiazol-5-yl}-(2,6-difluoro-phenyl)-methanone]
[1]
  Ki: 2.2 nM
[2]
  Ki: 15 nM
[3]; first HCT-116 column (c4)
  IC50: 280 nM
[3]; second HCT-116 column (c5)
  IC50: 650 nM

## Nc1nc(NC2CCN(C(=O)COc3cc(Cl)c(Cl)cc3Cl)CC2)sc1C(=O)c1c(F)cccc1F [Example R12]
[1]; at 0.03 μM
  CDK4 % Inhibition at 0.03 μM: 23%
[2]; at 0.03 μM
  CDK2 % Inhibition at 0.03 μM: −10%
[3]; HCT-116 cells, at 0.1 μM
  HCT-116 % Inhibition at 0.1 μM: 0%
[3]; HCT-116 cells
  HCT-116 5 Inhibition at 0.25 μM: 48

## Nc1nc(NC2CCN(C(=O)C(=O)c3c[nH]c4ccccc34)CC2)sc1C(=O)c1c(F)cccc1F [Example R5]
[1]; at 0.03 μM
  CDK4 % Inhibition at 0.03 μM: 9%
[2]; at 0.03 μM
  CDK2 % Inhibition at 0.03 μM: −31%
[3]; HCT-116 cells, at 0.1 μM
  HCT-116 % Inhibition at 0.1 μM: 13%
[3]; HCT-116 cells
  HCT-116 5 Inhibition at 0.25 μM: 49
